From ChEMBL document CHEMBL1131941, “Synthesis and biological evaluation of alpha,alpha-difluorobenzylphosphonic acid derivatives as small molecular inhibitors of protein-tyrosine phosphatase 1B” (Bioorg Med Chem Lett, 1999)

How the values were obtained:
[1] = molecular target: T1, Tyrosine-protein phosphatase non-receptor type 1 (Homo sapiens, UniProt P18031); test: Inhibitory potency for the protein tyrosine phosphatase (PTP 1B)-catalyzed hydrolysis of p-nitrophenol phosphate; type: functional
T1 sequence (P18031 whole entry): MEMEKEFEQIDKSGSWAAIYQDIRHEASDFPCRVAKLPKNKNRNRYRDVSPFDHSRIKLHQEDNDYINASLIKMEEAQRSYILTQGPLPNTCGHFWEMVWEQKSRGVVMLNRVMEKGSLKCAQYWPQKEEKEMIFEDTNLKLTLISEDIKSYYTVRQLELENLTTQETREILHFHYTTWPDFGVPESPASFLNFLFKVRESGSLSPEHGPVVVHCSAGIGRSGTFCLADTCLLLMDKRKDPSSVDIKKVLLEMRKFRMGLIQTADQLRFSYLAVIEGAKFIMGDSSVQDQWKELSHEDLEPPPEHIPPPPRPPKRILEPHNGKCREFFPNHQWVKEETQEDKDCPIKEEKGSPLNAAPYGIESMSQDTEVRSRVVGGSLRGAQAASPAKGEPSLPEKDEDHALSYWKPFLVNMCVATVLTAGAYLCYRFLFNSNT

[2] = molecular target: T1, Tyrosine-protein phosphatase non-receptor type 1; test: Inhibitory potency for the protein tyrosine phosphatase (PTP 1B)-catalyzed hydrolysis of p-nitrophenol phosphate; No inhibition; type: functional

Structure (SMILES) | IC50 [1] [µM] | IC50 [2]
COc1ccc(-c2ccc(C(F)(F)P(=O)(O)O)cc2)cc1 | 451 | 
O=P(O)(O)C(F)(F)c1ccc(/C=C/c2ccccc2)cc1 | 450 | 
CS(=O)(=O)Nc1cc(C(F)(F)P(=O)(O)O)ccc1C#Cc1ccccc1 | 167 | 
CS(=O)(=O)Nc1cc(C(F)(F)P(=O)(O)O)ccc1/C=C/c1ccccc1 | 176 | 
O=P(O)(O)C(F)(F)c1cccc(/C=C/c2ccccc2)c1 | 386 | 
O=P(O)(O)C(F)(F)c1ccc(-c2ccccc2)cc1 | 779 | 
O=P(O)(O)C(F)(F)c1ccccc1 |  | Not Active
O=P(O)(O)C(F)(F)c1ccc2ccccc2c1 | 718 | 

Further compounds by falling IC50 [1], results first:

IC50 [1] [µM] | Structure (SMILES) | IC50 [2]
136 | O=P(O)(O)C(F)(F)c1cccc(C#Cc2ccccc2)c1 | 
128 | O=P(O)(O)C(F)(F)c1ccc(C#Cc2ccccc2)cc1 | 
88.7 | CS(=O)(=O)N(c1cc(C(F)(F)P(=O)(O)O)ccc1C#Cc1ccccc1)S(C)(=O)=O | 
77.5 | C#Cc1ccc(C(F)(F)P(=O)(O)O)cc1 | 
57.9 | CS(=O)(=O)N(c1cc(C(F)(F)P(=O)(O)O)ccc1/C=C/c1ccccc1)S(C)(=O)=O | 
19 | C#Cc1cccc(C(F)(F)P(=O)(O)O)c1 | 
